“And” between values parts separate entries of the source, which are not always exact repeats. Equal values may be shown once. Residues, ends and D or L forms follow the SMILES beside them.
Key:
[1] = cited from earlier work
[2] = target: T1, ACE present in mouse plasma (Mus musculus, UniProt P09470); details: cited from earlier work
T1 construct: host or cells: mouse plasma
T1 sequence (P09470 35-1237 limits assumed): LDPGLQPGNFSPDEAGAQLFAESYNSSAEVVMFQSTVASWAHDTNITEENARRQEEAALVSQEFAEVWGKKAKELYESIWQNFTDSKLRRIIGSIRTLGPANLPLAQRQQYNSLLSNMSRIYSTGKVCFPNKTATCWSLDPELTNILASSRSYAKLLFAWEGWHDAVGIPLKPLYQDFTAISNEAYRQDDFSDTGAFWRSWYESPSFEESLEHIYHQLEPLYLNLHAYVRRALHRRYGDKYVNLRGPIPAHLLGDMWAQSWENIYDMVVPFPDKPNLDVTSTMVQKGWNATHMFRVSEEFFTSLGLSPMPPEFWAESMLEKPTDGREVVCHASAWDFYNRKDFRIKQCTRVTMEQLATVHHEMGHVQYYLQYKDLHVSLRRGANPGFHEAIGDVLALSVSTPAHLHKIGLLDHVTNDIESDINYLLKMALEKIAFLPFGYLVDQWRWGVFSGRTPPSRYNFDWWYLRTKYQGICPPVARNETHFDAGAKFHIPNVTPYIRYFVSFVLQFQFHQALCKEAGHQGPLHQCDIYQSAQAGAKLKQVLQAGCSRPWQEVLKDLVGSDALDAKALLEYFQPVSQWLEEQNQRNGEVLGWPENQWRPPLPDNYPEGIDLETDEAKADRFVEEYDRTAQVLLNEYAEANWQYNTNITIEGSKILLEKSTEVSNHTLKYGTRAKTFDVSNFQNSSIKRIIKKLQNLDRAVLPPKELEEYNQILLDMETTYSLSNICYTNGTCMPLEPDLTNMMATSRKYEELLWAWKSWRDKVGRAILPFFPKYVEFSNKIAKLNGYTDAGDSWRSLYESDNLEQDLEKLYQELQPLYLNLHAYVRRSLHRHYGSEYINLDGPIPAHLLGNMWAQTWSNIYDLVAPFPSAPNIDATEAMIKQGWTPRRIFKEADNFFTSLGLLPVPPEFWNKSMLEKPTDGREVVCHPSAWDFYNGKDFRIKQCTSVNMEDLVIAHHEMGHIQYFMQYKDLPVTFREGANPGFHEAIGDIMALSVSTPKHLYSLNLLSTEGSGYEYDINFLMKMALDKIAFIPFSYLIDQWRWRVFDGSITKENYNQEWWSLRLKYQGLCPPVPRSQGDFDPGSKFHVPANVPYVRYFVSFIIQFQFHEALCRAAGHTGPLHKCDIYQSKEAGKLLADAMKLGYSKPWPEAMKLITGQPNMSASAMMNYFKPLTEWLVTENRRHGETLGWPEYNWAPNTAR

[3] = Plasma and urine pharmacokinetics after I.V. bolus in rats; details: for % excreted: urine; for Renal clearance: summarizing table, i.v. bolus
[4] = Group 3, i.v. bolus, without captopril, 24-48 h, single rats
[5] = Group 3, i.v. bolus, without captopril, mean
[6] = Group 3, i.v. bolus, without captopril, single rats
[7] = Group 4, i.v. bolus, with captopril, 4-24 h, single rats
[8] = Group 4, i.v. bolus, with captopril, 48-72 h, single rats
[9] = Group 4, i.v. bolus, with captopril, mean
[10] = Group 4, i.v. bolus, with captopril, single rats

CC(=O)N[C@@H](CO)C(=O)N[C@@H](CC(=O)O)C(=O)N[C@@H](CCCCN)C(=O)N1CCC[C@H]1C(N)=O [AcSDKP-NH2, N-acetyl-Ser-Asp-Lys-Pro-NH2] (Ac-SDKP-NH2)
modification after 3 freezing-thawing cycles [1]: no adverse modification
degradation by the ACE present in mouse plasma [2]: not degraded
Q in urine ([3]; Group 3, i.v. bolus, without captopril, 0-2 h, single rats): 175685.1 ng and 0.0 ng (5×)
Q in urine ([3]; Group 3, i.v. bolus, without captopril, 2-4 h, single rats): 0.0 ng (3×) and 180325.8 ng and 141210.2 ng and 290581.1 ng
Q in urine ([3]; Group 3, i.v. bolus, without captopril, 4-7 h, single rats): 84030.9 ng and 23548.7 ng and 0.0 ng (4×)
Q in urine ([3]; Group 3, i.v. bolus, without captopril, 7-24 h, single rats): 16014.8 ng and 8570.5 ng and 211497.2 ng and 41898.9 ng and 29223.7 ng and 159391.7 ng
Concentration in urine [3, 4]: ILQ
Q in urine [3, 4]: 513.0 ng and 1304.8 ng and 47218.0 ng and 603.6 ng and ILQ and 3161.4 ng
Concentration in plasma ([3]; Group 3, i.v. bolus, without captopril, 5 min, single rats): 2581 ng/mL and 3139 ng/mL and 2865 ng/mL and 2491 ng/mL and 3250 ng/mL and 2663 ng/mL
Concentration in plasma ([3]; Group 3, i.v. bolus, without captopril, 10 min, single rats): 1611 ng/mL and 2288 ng/mL and 2425 ng/mL and 2152 ng/mL and 2918 ng/mL and 2595 ng/mL
Concentration in plasma ([3]; Group 3, i.v. bolus, without captopril, 15 min, single rats): 1655 ng/mL and 985 ng/mL and 2204 ng/mL and 1796 ng/mL and 1930 ng/mL and 1750 ng/mL
Concentration in plasma ([3]; Group 3, i.v. bolus, without captopril, 30 min, single rats): 748 ng/mL and 880 ng/mL and 1317 ng/mL and 1329 ng/mL and 930 ng/mL and 867 ng/mL
Concentration in plasma ([3]; Group 3, i.v. bolus, without captopril, 60 min, single rats): 233 ng/mL and 443 ng/mL and 598 ng/mL and 545 ng/mL and 416 ng/mL and 463 ng/mL
Concentration in plasma ([3]; Group 3, i.v. bolus, without captopril, 120 min, single rats): 47 ng/mL and 45 ng/mL and 163 ng/mL and 118 ng/mL and 48 ng/mL and 69 ng/mL
Concentration in plasma ([3]; Group 3, i.v. bolus, without captopril, 240 min, single rats): ILQ (2×) and 3 ng/ml and 5 ng/ml and 2 ng/ml and 4 ng/ml
Concentration in plasma ([3]; Group 3, i.v. bolus, without captopril, 300 min, single rats): ILQ
CLR [3, 5]: 7.59 mL/min/kg
Ctotal dose/AUC [3, 5]: 8.08 mL/min/kg
AUC0-INF [3, 6]: 87407 ng·min/mL and 125025 ng·min/mL and 111894 ng·min/mL and 101003 ng·min/mL and 96190 ng·min/mL
CLR [3, 6]: 11.8 mL/min/kg and 7.7 mL/min/kg and 6.4 mL/min/kg and 4.9 mL/min/kg and 9.8 mL/min/kg and 5.0 mL/min/kg
Ctotal dose/AUC [3, 6]: 11.3 mL/min/kg and 9 mL/min/kg and 6.2 mL/min/kg and 6.5 mL/min/kg and 8.1 mL/min/kg and 7.2 mL/min/kg
Q in urine total [3, 6]: 276243.9 ng and 213749.7 ng and 258715.2 ng and 183712.7 ng and 319804.8 ng and 162553.1 ng
Vd [3, 6]: 0.27 L/kg and 0.22 L/kg and 0.253 L/kg and 0.256 L/kg and 0.261 L/kg
t½ [3, 6]: 20.7 min (2×) and 24.5 min and 26.8 min and 21.8 min and 25.1 min
% excreted [3, 5]: 92.67%
% excreted [3, 6]: 120.7%
Concentration in urine [3, 7]: 11032 ng/mL
Q in urine [3, 7]: 208504.2 ng and 144361.5 ng and 286064.8 ng and 274157.3 ng and 353834.5 ng
Q in urine ([3]; Group 4, i.v. bolus, with captopril, 24-48 h, single rats): 10737.7 ng and 2183.9 ng and 16360.4 ng and 10087.6 ng and 6728.5 ng
Concentration in urine [3, 8]: ILQ and 11 ng/ml
Q in urine [3, 8]: 758.4 ng and ILQ and 619.3 ng and 4008.3 ng and 0.0 ng
Concentration in plasma ([3]; Group 4, i.v. bolus, with captopril, 5 min, single rats): 3623 ng/mL and 3115 ng/mL and 4099 ng/mL and 2863 ng/mL and 3280 ng/mL
Concentration in plasma ([3]; Group 4, i.v. bolus, with captopril, 10 min, single rats): 1750 ng/mL and 3571 ng/mL and 3075 ng/mL and 2682 ng/mL and 2346 ng/mL
Concentration in plasma ([3]; Group 4, i.v. bolus, with captopril, 15 min, mean): 1874 ng/mL
Concentration in plasma ([3]; Group 4, i.v. bolus, with captopril, 15 min, single rats): 1432 ng/mL and 1978 ng/mL and 2363 ng/mL and 1635 ng/mL and 1960 ng/mL
Concentration in plasma ([3]; Group 4, i.v. bolus, with captopril, 30 min, mean): 1213 ng/mL
Concentration in plasma ([3]; Group 4, i.v. bolus, with captopril, 30 min, single rats): 1128 ng/mL and 891 ng/mL and 1173 ng/mL and 889 ng/mL and 1986 ng/mL
Concentration in plasma ([3]; Group 4, i.v. bolus, with captopril, 60 min, mean): 453 ng/mL
Concentration in plasma ([3]; Group 4, i.v. bolus, with captopril, 60 min, single rats): 312 ng/mL and 338 ng/mL and 346 ng/mL and 357 ng/mL and 910 ng/mL
Concentration in plasma ([3]; Group 4, i.v. bolus, with captopril, 120 min, mean): 74 ng/mL
Concentration in plasma ([3]; Group 4, i.v. bolus, with captopril, 120 min, single rats): 31 ng/mL and 63 ng/mL and 64 ng/mL and 73 ng/mL and 140 ng/mL
Concentration in plasma ([3]; Group 4, i.v. bolus, with captopril, 180 min, mean): 15 ng/mL
Concentration in plasma ([3]; Group 4, i.v. bolus, with captopril, 180 min, single rats): 7 ng/mL and 11 ng/mL and 18 ng/mL and 16 ng/mL and 23 ng/mL
Concentration in plasma ([3]; Group 4, i.v. bolus, with captopril, 240 min, single rats): 2 ng/ml (2×) and 3 ng/ml (3×)
Concentration in plasma ([3]; Group 4, i.v. bolus, with captopril, 300 min, mean): 0 ng/mL
Concentration in plasma ([3]; Group 4, i.v. bolus, with captopril, 300 min, single rats): ILQ (4×) and 0 ng/ml
AUC0-INF [3, 9]: 110097 ng·min/mL
CLR [3, 9]: 8.03 mL/min/kg
Ctotal dose/AUC [3, 9]: 8.06 mL/min/kg
Vd [3, 9]: 0.269 L/kg
AUC0-INF [3, 10]: 100543 ng·min/mL and 114983 ng·min/mL and 92278 ng·min/mL and 153339 ng·min/mL
CLR [3, 10]: 8.2 mL/min/kg and 4.7 mL/min/kg and 9.1 mL/min/kg and 10.6 mL/min/kg and 7.6 mL/min/kg
Ctotal dose/AUC [3, 10]: 9.0 mL/min/kg and 6.9 mL/min/kg and 7.8 mL/min/kg and 9.4 mL/min/kg and 7.2 mL/min/kg
Q in urine total [3, 10]: 220000 ng and 146545.0 ng and 303045 ng and 288253 ng and 360563 ng
Vd [3, 10]: 0.23 L/kg and 0.26 L/kg and 0.327 L/kg and 0.242 L/kg
t½ [3, 10]: 21.9 min and 23.0 min and 24.1 min
% excreted [3, 9]: 98.76%
GFR measured after administration, difference between the groups of rats ([3]; rats): does not differ significantly
degradation in vivo by ACE or other enzyme systems ([3]; rats): not degraded in vivo
excretion in the urine ([3]; rats): completely excreted in the urine without being reabsorbed or secreted
mean AUC of group without captopril less than group with captopril ([3]; rats, mean injected dose 11% higher with captopril): approximately 10%
Renal clearance ([3]; rats, with captopril): 8.0 mL/min/kg
Renal clearance ([3]; rats, without captopril): 7.6 mL/min/kg
